# Source: article PMC3626541, “A first in human, safety, pharmacokinetics, and clinical activity phase I study of once weekly administration of the Hsp90 inhibitor ganetespib (STA-9090) in patients with solid malignancies” (BMC Cancer, 2013)
# Entries after “also recorded” stand apart in the source; their conditions may differ.
# Test system: patients with advanced solid tumors
# Experiment: Dose escalation: dose-limiting toxicity, MTD and RP2D
# Format: in vivo, human
# Procedure: Ganetespib was administered over a 1-hour infusion, once weekly for 3 weeks of a 4-week cycle. Intra-patient dose escalation was allowed to dose levels shown to be safe and tolerable. The starting dose (7 mg/m^2) was selected based on a conservative estimate using the highest non-severely toxic dose established in a once-weekly, 4-week repeat dose study in cynomolgus monkeys. […] Each cohort consisted of 3 patients, with expansion to 6 patients if 1 of the 3 initial patients experienced a DLT, which was defined as: Grade 4 thrombocytopenia (or Grade 3 with hemorrhage); Grade 4 neutropenia lasting > 7 days (or Grade 3 with fever); Grade 4 anemia; ≥ Grade 3 non-hematologic toxicity (except alopecia); and ≥ Grade 3 hypersensitivity despite premedication. Doses were escalated after all patients in the preceding dose cohort had completed Cycle 1. […] The RP2D was defined as the dose of ganetespib below which 2 of 3 or 2 of 6 patients experienced a DLT.
compound,measurement,setting,value
"CC(C)c1cc(-c2n[nH]c(=O)n2-c2ccc3c(ccn3C)c2)c(O)cc1O [Ganetespib, 5-[2,4-dihydroxy-5-(1 methyl-ethyl)phenyl]-2,4 dihydro-4-(1-methyl-1H indol-5 yl)-3H-1,2,4 triazole-3-one]",DLT: Grade 3 elevated serum amylase,150 mg/m^2 dose level,one Grade 3 amylase elevation; also recorded: one patient
same,DLT: Grade 3 and 4 asthenia,259 mg/m^2 dose level,one Grade 3 and one Grade 4 asthenia; also recorded: two patients
same,DLT: Grade 3 diarrhea,"259 mg/m^2 dose level, expanded to 6 patients",one Grade 3 diarrhea; also recorded: one additional patient
same,Patients experiencing DLT,7–114 mg/m^2 cohort,None of the patients
same,Maximum tolerated dose (MTD),1 hour IV infusion once weekly for 3 weeks of a 4-week cycle,216 mg/m^2
same,Recommended phase II dose (RP2D),"human, in vivo, iv, 4 weeks",200 mg/m^2
same,Grade 3 fatigue (would have been dose-limiting in dose-escalation phase),in vivo,One patient
